Test results: US20230075822A1, “USE OF CASTALAGIN OR ANALOGS THEREOF FOR ANTI-CANCER EFFICACY AND TO INCREASE THE RESPONSE TO IMMUNE CHECKPOINT INHIBITORS” (THE ROYAL INSTITUTION FOR THE ADVANCEMENT OF …, priority 2020, published 2023)

System: MCA-205 sarcoma
Assay: Subcutaneous MCA-205 sarcoma tumor model (anti-PD-1 sensitive), SPF-reared mice
Type: in vivo, C57BL/6 mice
Conditions: 0.85 mg/kg per mouse daily oral gavage; in contrast to castalagin
Protocol: FIG. 1A is a schematic of the protocol used to study the effect of a Camu camu extract (CC) alone and additive effect when combined to anti-PD-1 therapy in a murine tumor model sensitive to anti-PD-1 therapy. Syngeneic C57BL/6 mice were implanted with 0.8×10^6 MCA-205 sarcoma, subcutaneously and treated intraperitoneally (i.p.) when tumors reached 20 to 35 mm^2 in size with anti-PD-1 mAb (250 μg/mouse; clone RMP1-14,) or isotype control (clone 2A3) with or without daily oral gavage with 200 mg/kg of [NT] Powder from SunFood). Murine studies. All animal studies were approved by the Institutional Animal Care Committee (CIPA) and carried out in compliance with the Canadian Council on Animal Care guidelines. Murine experiments were conducted using seven-week-old female C57BL/6 mice, obtained from Charles River, Canada. Germ-free female C57BL/6 mice were purchased from the International Microbiome Centre Germ-Free Facility (University of Calgary, Canada) and maintained at the CR-CHUM Germ-Free Facility. Cell culture, reagents and tumor cell lines. MCA-205 fibrosarcoma cells and E0771 mammary adenocarcinoma cells, class I MHC H-2b syngeneic cell lines for C57BL/6 mice, were used for this study. MCA-205 cells were cultured at 37° C. in the presence of 5% CO2 in Roswell Park Memorial Institute (RPMI) 1640 (Gibco-lnvitrogen) containing 10% Fetal bovine serum (FBS) (Wisent), 2 mM L-glutamine (Wisent), 100 IU/ml penicillin/streptomycin (Wisent), 1 mM sodium pyruvate (Wisent) and MEM non-essential amino acids (Gibco-lnvitrogen). E0771 cells were cultured at 37° C. in the presence of 5% CO2 in Dulbecco's Modified Eagle's Medium (DMEM) (Gibco-lnvitrogen) containing 10% FBS (Wisent), 2 mM L-glutamine, 100 IU/ml penicillin/streptomycin (Wisent), 1 mM sodium pyruvate (Wisent). Subcutaneous model of MCA-205 sarcoma and E0771 breast cancer. Syngeneic C57BL/6 mice were implanted with 0.8×10^6 MCA-205 or 0.5×10^6 E0771 subcutaneously. When tumors reached 20 to 35 mm^2 in size, mice were treated four times (or two times for flow cytometry analysis, see section below) intraperitoneally (i.p.) every three day with anti-PD-1 monoclonal antibody (mAb) (250 μg/mouse; clone RMP1-14, BioXcell) or isotype control (clone 2A3, BioXcell). Upon treatment initiation, mice received a daily oral gavage with the following products: Myrciaria dubia, [NT] raw extract (Sunfood) (200 mg/kg per mouse), fractions from the extraction round 1 (P, INT, NP, Insol) (40.18 mg/kg per mouse), fractions from the extraction round 2 (P1, P2, P3 and P4) (equivalent to fraction P dose of 40.18 mg/kg per mouse), […] (extracted from CC, see isolation process below) (0.85 mg/kg per mouse), ellagic acid (0.85 mg/kg per mouse) (Sigma-Aldrich), urolithin A (0.85 mg/kg per mouse) (Sigma-Aldrich), […] (0.5 mg/kg per mouse) (PhytoProof®, Sigma-Aldrich) and castalagin at different concentration: 1/8, 1/6, 1/4, 1/2 of the standard concentration, at the standard concentration (0.85 mg/kg per mouse), 1.5-fold (1.25 mg/kg per mouse) and three-fold increase concentration (2.55 mg/kg per mouse) (PhytoProof©, Sigma-Aldrich or isolated from food grade oak, see isolation process below). In the control group mice received daily oral gavage with water (100 μL) Tumor area was routinely monitored every three days by means of a caliper. In the depletion experiments, we used the anti-CD8 mAb (150 μg/mouse; clone 53-6.7, BioXcell) or isotype control (clone 2A3, BioXcell.

Row | SMILES | antitumor effect (tumor size at sacrifice)
1 | O=c1oc2c(O)c(O)cc3c(=O)oc4c(O)c(O)cc1c4c23 [ellagic acid, reference compound] | no antitumor effects were observed
2 | O=c1oc2cc(O)ccc2c2ccc(O)cc12 [urolithin A, reference compound] | no antitumor effects were observed
3 | O=C1OC[C@H]2OC(=O)c3cc(O)c(O)c(O)c3-c3c(O)c(O)c(O)c4c3C(=O)O[C@H]([C@H]3OC(=O)c5c-4c(O)c(O)c(O)c5[C@H]3O)[C@@H]2OC(=O)c2cc(O)c(O)c(O)c2-c2c1cc(O)c(O)c2O [vescalagin, reference compound] | no antitumor effects were observed
